# Columns and labels:
# [1] = tested on: tocopherol-mediated peroxidation (TMP); test: Anti-TMP index; assay type: biochemical
# α-tocopheroxyl radical = test: Tocopheroxyl radical attenuating ability (TRAA); assay type: biochemical; conditions: kobs with (+) or without (−) test compound
# [2] = tested on: New Zealand White rabbits with arterial balloon injury; test: Serum and plasma lipid profile and antioxidants; assay type: in vivo
# Procedure: (§1) Twelve rabbits were initially fed standard rabbit chow ad libitum for two weeks, before commencement of the nine weeks intervention study. Six rabbits were fed 100 g per day of standard rabbit chow without (control) or with 0.02% PDA474. At the end of week three, the abdominal aorta and right iliac artery were injured by inserting a 3F Fogarty catheter into the right femoral artery and advancing it by about 25 cm to a position just above the diaphragm. The balloon was then inflated with 0.2 mL of saline, and the catheter pulled back three times. Following injury rabbits were placed back onto their respective diet for another six weeks. During the nine weeks, blood was taken from the marginal ear vein of non-fasted rabbits each week for measuring plasma PDA474 and its metabolites. At the end of week nine, the aorta, iliofemoral arteries and a portion of various tissues (liver, kidney, heart, muscle, spleen and abdominal fat) were harvested.
# [3] = tested on: New Zealand White rabbits with arterial balloon injury; test: Liver function (serum AST, ALT, GGT); assay type: in vivo; conditions: for Serum ALT / Serum AST / Serum GGT: 0.02% PDA474
# Procedure: as §1
# [4] = PDA474 and metabolite levels in plasma, aorta and major tissues; assay type: in vivo, New Zealand White rabbits
# Procedure: as §1
# [5] = tested on: intimal thickening in rabbit aorta after arterial balloon injury; test: Histological evaluation of aortic lesion formation after arterial balloon injury; assay type: in vivo, New Zealand White rabbits; conditions: rabbits, 0.02% PDA474, six weeks after ABI
# Procedure: as §1
# The lower abdominal aorta and iliofemeral arteries were pre-perfusion-fixed with 4% buffered formalin at a constant physiological pressure (˜100 mmHg) before removal and placement in 4% buffered formalin for further fixation for 12 h at room temperature. Two parts of the abdominal aorta were taken for lesion assessment. One part (referred to as A1) was located just above 3rd lumber artery close to the lumber branches, and the other part (referred to as A3) represented the central part between 3rd and 4th lumber arteries, where there are few branches. A1 and A3 specimens were embedded in paraffin and two sections (200 μm apart) were taken from each specimen and stained with Verhoeff hematoxylin.
# The intima, media and intima/media ratio (IMR) were calculated by tracing the intimal and medial areas and determining their respective total pixel numbers. High IMR indicate large lesions. In addition, the perimeter of the external elastic lamina and the lumen were quantified using Scion Image Software to assess the extent of vessel remodeling.
# [6] = tested on: abdominal aortic rings of balloon-injured rabbits; test: Aortic ring study (response to NE, ACh, SNP); assay type: in vivo, New Zealand White rabbits
# Description: Following the intervention, the abdominal aorta was removed carefully, cleared of adhering fat and connective tissue, and then cut into 2 mm-wide transverse rings just under second lumbar artery (about 9 cm distal to the common iliac artery and about 5 cm below the celiac artery). This portion of the aorta contains few branches. […] Before the start of the experiments, aortic rings were allowed to equilibrate for one hour under a resting tension of 2.5 g, followed by three washes and re-equilibration of the rings between addition of drugs inducing vaso-response. At the end of each experiment, the aortic ring was weight. The vascular function was assessed in three parts:
# 2) The response to the endothelium-dependent vasodilator, acetylcholine (ACh). Rings were pre-constricted with PE corresponding to a dose that gave half-maximum contraction (EC50) as calculated from the dose-response curve to NE. ACh (10^−9-10^−5 M) was added after reaching a constant contriction.
# 3) The response to the endothelium-independent vasodilator, sodium nitroprusside (SNP) (10^−9-10^−5 M) was determined to assess vascular smooth muscle cell function.
# [7] = tested on: cGMP production by aortic rings; test: cGMP in homogenates of aortic rings (radioimmunoassay); assay type: in vivo, New Zealand White rabbits; conditions: aortic rings of PDA474-treated rabbits, 1 μM ACh
# Procedure: cGMP in the homogenates of aortic ring was determined by a specific radioimmunoassay. […] SNP (1 μM) was used as a positive and buffer vehicle as a negative control. The cGMP content was then determined as described in the commercial assay kit (Cayman Chemical), and results expressed per tissue weight or protein.
# [8] = 0.02% PDA474, Week 0 (baseline)
molecule,measurement,setting,value
Cc1cc(C(C)(C)C)c(O)c(C(C)(C)C)c1 [BHT],Anti-TMP index,[1],8-10
same,TRAA (decay of tocopheroxyl radical; kobs(+)/kobs(−)),α-tocopheroxyl radical,Immediate decay
diphenoquinone [H 330/68],Anti-TMP index,[1],100
same,TRAA (decay of tocopheroxyl radical; kobs(+)/kobs(−)),α-tocopheroxyl radical,kobs(+)/kobs(−)˜1
CC(C)(C)c1cc(SSc2cc(C(C)(C)C)c(O)c(C(C)(C)C)c2)cc(C(C)(C)C)c1O [PDA474],Plasma Ascorbate,[2]; [8],34.56 ± 4.36 µmol/L
same,Plasma Ch18:2,[2]; [8],0.19 ± 0.02 mmol/L
same,Plasma Ch20:2,[2]; [8],0.01 ± 0.00 mmol/L
same,Plasma Free Chol,[2]; [8],0.49 ± 0.05 mmol/L
same,Plasma Total Chol,[2]; [8],0.69 ± 0.07 mmol/L
same,Plasma Urate,[2]; [8],5.56 ± 0.43 µmol/L
same,Plasma a-TOH,[2]; [8],4.40 ± 0.24 µmol/L
same,Serum HDL Chol,[2]; [8],0.58 ± 0.07 mmol/L
same,Serum Triglycerides,[2]; [8],0.95 ± 0.11 mmol/L
same,Plasma Ascorbate,"[2]; 0.02% PDA474, Week 3 (ABI)",44.01 ± 5.29 µmol/L
same,Plasma Ch18:2,"[2]; 0.02% PDA474, Week 3 (ABI)",0.19 ± 0.02 mmol/L
same,Plasma Ch20:2,"[2]; 0.02% PDA474, Week 3 (ABI)",0.08 ± 0.00 mmol/L
same,Plasma Free Chol,"[2]; 0.02% PDA474, Week 3 (ABI)",0.42 ± 0.03 mmol/L
same,Plasma Total Chol,"[2]; 0.02% PDA474, Week 3 (ABI)",0.62 ± 0.03 mmol/L
same,Plasma Urate,"[2]; 0.02% PDA474, Week 3 (ABI)",5.86 ± 0.65 µmol/L
same,Plasma a-TOH,"[2]; 0.02% PDA474, Week 3 (ABI)",5.02 ± 0.50 µmol/L
same,Serum Cholesterol,"[2]; 0.02% PDA474, Week 3 (ABI)",0.77 ± 0.14 mmol/L
same,Serum HDL Chol,"[2]; 0.02% PDA474, Week 3 (ABI)",0.50 ± 0.09 mmol/L
same,Serum Triglycerides,"[2]; 0.02% PDA474, Week 3 (ABI)",0.98 ± 0.15 mmol/L
same,Plasma Ch18:2,"[2]; 0.02% PDA474, Week 6",0.25 ± 0.10 mmol/L
same,Plasma Ch20:2,"[2]; 0.02% PDA474, Week 6",0.02 ± 0.01 mmol/L
same,Plasma Free Chol,"[2]; 0.02% PDA474, Week 6",0.43 ± 0.11 mmol/L
same,Plasma Total Chol,"[2]; 0.02% PDA474, Week 6",0.70 ± 0.21 mmol/L
same,Plasma a-TOH,"[2]; 0.02% PDA474, Week 6",4.76 ± 0.64 µmol/L
same,Serum Cholesterol,"[2]; 0.02% PDA474, Week 6",1.15 ± 0.51 mmol/L
same,Serum HDL Chol,"[2]; 0.02% PDA474, Week 6",0.51 ± 0.15 mmol/L
same,Serum Triglycerides,"[2]; 0.02% PDA474, Week 6",0.93 ± 0.08 mmol/L
same,Plasma Ascorbate,"[2]; 0.02% PDA474, Week 9 (cull)",46.51 ± 5.49 µmol/L
same,Plasma Ch18:2,"[2]; 0.02% PDA474, Week 9 (cull)",0.16 ± 0.02 mmol/L
same,Plasma Ch20:2,"[2]; 0.02% PDA474, Week 9 (cull)",0.04 ± 0.00 mmol/L
same,Plasma Free Chol,"[2]; 0.02% PDA474, Week 9 (cull)",0.30 ± 0.03 mmol/L
same,Plasma Total Chol,"[2]; 0.02% PDA474, Week 9 (cull)",0.46 ± 0.04 mmol/L
same,Plasma Urate,"[2]; 0.02% PDA474, Week 9 (cull)",5.24 ± 1.25 µmol/L
same,Plasma a-TOH,"[2]; 0.02% PDA474, Week 9 (cull)",3.60 ± 0.31 µmol/L
same,Serum Cholesterol,"[2]; 0.02% PDA474, Week 9 (cull)",0.67 ± 0.06 mmol/L
same,Serum HDL Chol,"[2]; 0.02% PDA474, Week 9 (cull)",0.42 ± 0.04 mmol/L
same,Serum Triglycerides,"[2]; 0.02% PDA474, Week 9 (cull)",0.97 ± 0.13 mmol/L
same,hypocholesterolemic effect,"[2]; rabbits, 0.02% PDA474, 9 weeks",no hypocholesterolemic effect
same,Serum Cholesterol,"[2]; rabbits, chow with 0.02% PDA474, Week 0 (baseline)",1.13 ± 0.15 mmol/L
same,Serum ALT,[3]; Week 0 (baseline),51.17 ± 3.08 U/L
same,Serum AST,[3]; Week 0 (baseline),28.17 ± 2.65 U/L
same,Serum GGT,[3]; Week 0 (baseline),11.50 ± 1.06 U/L
same,Serum ALT,[3]; Week 3 (ABI),76.00 ± 8.13 U/L
same,Serum AST,[3]; Week 3 (ABI),63.33 ± 23.47 U/L
same,Serum GGT,[3]; Week 3 (ABI),12.33 ± 2.29 U/L
same,Serum ALT,[3]; Week 6,72.83 ± 5.19 U/L
same,Serum AST,[3]; Week 6,33.83 ± 8.79 U/L
same,Serum GGT,[3]; Week 6,13.67 ± 0.76 U/L
same,Serum ALT,[3]; Week 9 (cull),100.67 ± 10.43 U/L
same,Serum AST,[3]; Week 9 (cull),69.67 ± 14.34 U/L
same,Serum GGT,[3]; Week 9 (cull),12.33 ± 0.99 U/L
same,effect on liver function,"[3]; rabbits, 0.02% PDA474, 9 weeks",did not affect liver function
same,Fat PDA474 level,"[4]; 0.02% PDA474, 9 weeks, abdominal fat",1.99 ± 0.40 nmol/mg P
same,Aorta PDA474 level,"[4]; 0.02% PDA474, 9 weeks, aorta",0.59 ± 0.12 nmol/mg P
same,Heart PDA474 level,"[4]; 0.02% PDA474, 9 weeks, heart",0.65 ± 0.43 nmol/mg P
same,Kidney PDA474 level,"[4]; 0.02% PDA474, 9 weeks, kidney",0.26 ± 0.06 nmol/mg P
same,Liver PDA474 level,"[4]; 0.02% PDA474, 9 weeks, liver",7.30 ± 2.82 nmol/mg P
same,Muscle PDA474 level,"[4]; 0.02% PDA474, 9 weeks, muscle",0.17 ± 0.06 nmol/mg P
same,Spleen PDA474 level,"[4]; 0.02% PDA474, 9 weeks, spleen",0.30 ± 0.13 nmol/mg P
same,concentration at 9 weeks,"[4]; New Zealand White, rabbit, oral, 0.02 % in chow, rabbits, 0.02% PDA474 in chow, 9 weeks, plasma, read-out: Plasma PDA474 level",370 ± 40 nM
same,time until plasma concentrations of PDA474 reached steady state,"[4]; rabbits, chow with 0.02% PDA474",1˜2 weeks
same,amount of the administered PDA474 reaching the circulation,"[4]; rabbits, chow with 0.02% PDA474, estimated",< 1%
same,"intima-to-media ratio (IMR), Section A1 of the abdominal aorta, vs control",[5],significantly lower
same,media areas of abdominal aorta vs control,[5],significantly increased
same,"vascular remodeling (lumen area, EEL perimeter)",[5],did not affect
same,muscle tone (g/mg tissue) vs control aortic rings,"[6]; NE-induced constriction, PDA474-treated rabbits",nearly twice as high
same,SNP-induced relaxation vs control,[6]; rings from PDA474-treated rabbits,comparable
same,ACh-induced relaxation of aortic rings,"[6]; rings from PDA474-treated rabbits, pre-constricted with NE at EC50, maximal response at ˜10^−5M ACh",61 % relaxation
same,NE-induced constriction of abdominal aortic rings vs control,[6]; rings from balloon-injured rabbits fed 0.02% PDA474,significantly increased
same,tissue cGMP concentrations in response to ACh vs control,[7],significantly increased
